Assay results reported in patent publication US20260364184A1, “COMPOUND BASED ON OXOISOINDOLINYL-SUBSTITUTED TETRAHYDROPYRIMIDINE-DIONE AND USE THEREOF” (GLUETACS THERAPEUTICS (SHANGHAI) CO., LTD., priority 2023, published 2026).

Key:
EZH2 = target: T1, EZH2 (Homo sapiens, UniProt Q15910+Q96SW2); assay: Western blot degradation of EZH2; format: cell-based; conditions: hPBMC Cell; 24 hours
T1 construct: expression of target proteins in cells; endogenous in cells
Method: Conventional Western blot assay was performed to evaluate the effects of the compounds of the present disclosure on the expression of target proteins in cells.
(1) Cell Seeding and Protein Harvesting: The selected cells were processed according to the cell seeding procedure and protein harvesting procedure in Table II-2.
(2) To the collected supernatant, 5×SDS sample loading buffer was added, followed by denaturation at 95 °C for 5 minutes. The denatured samples were then separated by SDS-PAGE electrophoresis on a polyacrylamide gel. Proteins were transferred to a nitrocellulose membrane (0.45 μm NC membrane), blocked with blocking buffer at room temperature for 1 hour, and subjected to antibody incubation and development procedures according to the antibody manufacturer's instructions (Cell Signaling Technology).
Half-Maximal Degradation Concentration value (the drug concentration required for degrading proteins by 50%, abbreviated as DC50) reads method: comparing the grayscale values of Western blot bands from drug-treated samples with those from blank DMSO-treated controls, and identifying the drug concentration range at which the grayscale value is half that of the DMSO-treated control bands.
DC50 values can be calculated using ImageJ software to measure grayscale values of Western blot bands from drug-treated samples. The concentration-response curve is fitted to estimate the drug concentration corresponding to half the grayscale value.
Target protein remaining (%) refers to the percentage of target protein remaining in cells after treatment with protein degrader compounds.
Calculation method for target protein remaining (%): Use ImageJ software to measure grayscale values of Western blot bands from drug (protein degrader)-treated samples. The grayscale value of drug-treated bands is divided by that of internal control protein bands, and the resulting quotient is normalized to obtain the relative percentage of remaining target protein after protein degrader treatment.
Target protein degradation rate (%)=1−target protein remaining (%).

[1] = tested on: Human malignant melanoma cell line (A375); assay: Inhibition of A375 cell proliferation (CellTiter luminescent viability); conditions: A-375, Table III (II1), EZH2 inhibitor-based, 96 hours; for inhibition at 0.01 µM: A375, 10 nM, read-out: Inhibition Rate at 10 nM (%); for inhibition at 0.5 µM: A375, 500 nM, read-out: Inhibition Rate at 500 nM (%)
Method: The tumor cells used herein were cultured in a cell culture medium listed in table 3 at 37 °C in an incubator with 5% CO2. Prior to experimentation, all cell lines used were correctly identified by STR profiling, and tested negative for mycoplasma contamination using a mycoplasma detection kit through routine screenings.
The IC50 values of the compounds of the present disclosure (including the compounds in Table 1, Table 2, and Examples 1-468) were determined using the CellTiter-Meiluncell Luminescent Cell Viability Assay Kit from Dalian Meilun Biotech Co., Ltd. The detailed procedure is as follows: Tumor cells were seeded in 96-well cell culture plates at the densities specified in Table 4. On the following day, the test compounds of the present disclosure were subjected to serial dilution. The dilution can be performed according to one of the following two methods: • (1) The first dilution method: The test compounds of the present disclosure (including the compounds in Table 1, Table 2, and Examples 1-468) were subjected to 5-fold serial dilutions starting from a highest concentration of 2000 μM, resulting in a total of 9 concentrations from high to low (2000, 400, 80, 16, 3.2, 0.64, 0.128, 0.0256, 0.00512 μM). Subsequently, 0.5 μL of the test compound dilution was transferred into the 96-well plate containing the cells, with each well containing 100 μL of cell culture medium. […] Into the 96-well plate, the diluted test compounds and corresponding detection reagents were added, resulting in final test compound concentrations of 500 nM and 10 nM, respectively. The experimental procedure is described below using the diluted 2 μM test compound as an example.
0.5 μL of the aforementioned diluted compound of the present disclosure (including the compounds in Table 1, Table 2, and Examples 1-468) was added to the seeded cells in 100 μL of medium, yielding a final test compound concentration of 10 nM. After the cells were treated with the compounds of the present disclosure for a specified period, the cell viability assay reagent was added to the culture medium according to the kit's instructions to determine cell viability. […] All controls were treated using the same procedure as the compounds of the present disclosure. The growth inhibition curves for the compounds of the present disclosure were plotted using Prism GraphPad software, and the IC50 values were calculated therefrom.

[2] = tested on: Human neuroblastoma cell line (SK-N-AS); assay: Inhibition of SK-N-AS cell proliferation (CellTiter luminescent viability); format: cell-based; conditions: Table II2, EZH2 inhibitor-based, 96 hours; for inhibition at 0.01 µM: 10 nM, read-out: Inhibition Rate at 10 nM (%); for inhibition at 0.5 µM: 500 nM, read-out: Inhibition Rate at 500 nM (%)

T1 sequence (Q15910 whole entry): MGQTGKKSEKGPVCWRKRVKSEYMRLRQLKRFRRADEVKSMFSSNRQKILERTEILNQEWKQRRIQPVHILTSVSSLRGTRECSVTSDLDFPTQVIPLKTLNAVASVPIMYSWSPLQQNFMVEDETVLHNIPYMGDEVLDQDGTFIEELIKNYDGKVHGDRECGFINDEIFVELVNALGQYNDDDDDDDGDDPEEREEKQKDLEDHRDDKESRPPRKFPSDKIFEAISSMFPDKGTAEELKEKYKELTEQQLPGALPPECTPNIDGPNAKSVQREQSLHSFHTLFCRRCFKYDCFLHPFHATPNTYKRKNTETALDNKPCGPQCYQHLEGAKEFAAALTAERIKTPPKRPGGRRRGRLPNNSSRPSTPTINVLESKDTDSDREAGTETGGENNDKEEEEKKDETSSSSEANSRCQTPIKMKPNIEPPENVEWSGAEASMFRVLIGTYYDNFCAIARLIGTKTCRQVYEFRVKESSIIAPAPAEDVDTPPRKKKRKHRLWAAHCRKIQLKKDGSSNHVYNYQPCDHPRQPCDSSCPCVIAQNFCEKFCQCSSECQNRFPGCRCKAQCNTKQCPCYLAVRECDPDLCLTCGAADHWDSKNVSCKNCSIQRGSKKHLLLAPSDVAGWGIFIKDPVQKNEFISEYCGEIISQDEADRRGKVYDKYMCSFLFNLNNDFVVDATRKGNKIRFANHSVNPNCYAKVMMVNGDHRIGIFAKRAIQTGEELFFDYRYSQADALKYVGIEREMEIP
T1 sequence (O75530 whole entry partner): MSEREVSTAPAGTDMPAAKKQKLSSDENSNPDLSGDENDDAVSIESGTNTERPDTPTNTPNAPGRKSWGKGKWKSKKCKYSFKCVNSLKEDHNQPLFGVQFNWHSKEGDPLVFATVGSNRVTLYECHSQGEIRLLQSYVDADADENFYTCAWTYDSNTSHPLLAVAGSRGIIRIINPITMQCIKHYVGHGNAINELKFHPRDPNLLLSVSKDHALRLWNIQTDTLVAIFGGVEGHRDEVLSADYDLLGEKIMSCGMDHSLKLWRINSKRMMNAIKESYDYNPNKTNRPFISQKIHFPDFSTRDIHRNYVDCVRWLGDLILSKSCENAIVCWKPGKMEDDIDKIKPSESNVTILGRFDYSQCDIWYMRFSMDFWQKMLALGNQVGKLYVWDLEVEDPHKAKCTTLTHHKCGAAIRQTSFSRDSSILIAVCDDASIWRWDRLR
T1 sequence (Q15022 whole entry partner): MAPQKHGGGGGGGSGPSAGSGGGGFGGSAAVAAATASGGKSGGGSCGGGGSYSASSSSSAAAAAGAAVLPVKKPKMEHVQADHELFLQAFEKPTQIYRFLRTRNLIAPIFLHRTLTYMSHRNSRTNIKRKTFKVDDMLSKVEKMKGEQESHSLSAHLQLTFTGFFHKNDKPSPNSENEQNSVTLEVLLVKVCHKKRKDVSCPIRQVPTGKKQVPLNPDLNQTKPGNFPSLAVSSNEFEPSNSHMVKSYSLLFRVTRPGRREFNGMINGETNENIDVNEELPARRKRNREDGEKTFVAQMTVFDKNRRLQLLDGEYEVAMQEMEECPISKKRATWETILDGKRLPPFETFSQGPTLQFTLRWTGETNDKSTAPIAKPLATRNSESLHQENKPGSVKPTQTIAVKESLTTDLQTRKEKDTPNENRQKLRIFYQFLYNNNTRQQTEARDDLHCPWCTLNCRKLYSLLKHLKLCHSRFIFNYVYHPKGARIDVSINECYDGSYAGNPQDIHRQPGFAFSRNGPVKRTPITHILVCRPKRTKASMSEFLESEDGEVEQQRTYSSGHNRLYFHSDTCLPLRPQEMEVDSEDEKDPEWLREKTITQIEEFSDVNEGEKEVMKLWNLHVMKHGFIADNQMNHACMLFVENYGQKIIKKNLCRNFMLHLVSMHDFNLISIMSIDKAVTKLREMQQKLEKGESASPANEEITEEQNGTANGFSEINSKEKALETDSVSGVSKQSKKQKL
T1 sequence (Q96SW2 whole entry): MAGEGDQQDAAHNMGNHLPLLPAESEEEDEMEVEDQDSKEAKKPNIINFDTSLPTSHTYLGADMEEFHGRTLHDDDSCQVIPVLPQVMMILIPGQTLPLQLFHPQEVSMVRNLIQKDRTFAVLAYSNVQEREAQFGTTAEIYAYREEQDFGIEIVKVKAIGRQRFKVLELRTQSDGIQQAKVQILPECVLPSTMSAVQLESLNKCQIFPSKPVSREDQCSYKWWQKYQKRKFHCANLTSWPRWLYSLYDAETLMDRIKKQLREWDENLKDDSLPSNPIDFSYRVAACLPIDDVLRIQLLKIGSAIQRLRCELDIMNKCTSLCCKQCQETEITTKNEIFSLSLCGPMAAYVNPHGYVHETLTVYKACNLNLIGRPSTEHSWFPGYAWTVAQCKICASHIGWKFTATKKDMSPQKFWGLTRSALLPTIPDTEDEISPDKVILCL
T1 sequence (Q16531 whole entry partner): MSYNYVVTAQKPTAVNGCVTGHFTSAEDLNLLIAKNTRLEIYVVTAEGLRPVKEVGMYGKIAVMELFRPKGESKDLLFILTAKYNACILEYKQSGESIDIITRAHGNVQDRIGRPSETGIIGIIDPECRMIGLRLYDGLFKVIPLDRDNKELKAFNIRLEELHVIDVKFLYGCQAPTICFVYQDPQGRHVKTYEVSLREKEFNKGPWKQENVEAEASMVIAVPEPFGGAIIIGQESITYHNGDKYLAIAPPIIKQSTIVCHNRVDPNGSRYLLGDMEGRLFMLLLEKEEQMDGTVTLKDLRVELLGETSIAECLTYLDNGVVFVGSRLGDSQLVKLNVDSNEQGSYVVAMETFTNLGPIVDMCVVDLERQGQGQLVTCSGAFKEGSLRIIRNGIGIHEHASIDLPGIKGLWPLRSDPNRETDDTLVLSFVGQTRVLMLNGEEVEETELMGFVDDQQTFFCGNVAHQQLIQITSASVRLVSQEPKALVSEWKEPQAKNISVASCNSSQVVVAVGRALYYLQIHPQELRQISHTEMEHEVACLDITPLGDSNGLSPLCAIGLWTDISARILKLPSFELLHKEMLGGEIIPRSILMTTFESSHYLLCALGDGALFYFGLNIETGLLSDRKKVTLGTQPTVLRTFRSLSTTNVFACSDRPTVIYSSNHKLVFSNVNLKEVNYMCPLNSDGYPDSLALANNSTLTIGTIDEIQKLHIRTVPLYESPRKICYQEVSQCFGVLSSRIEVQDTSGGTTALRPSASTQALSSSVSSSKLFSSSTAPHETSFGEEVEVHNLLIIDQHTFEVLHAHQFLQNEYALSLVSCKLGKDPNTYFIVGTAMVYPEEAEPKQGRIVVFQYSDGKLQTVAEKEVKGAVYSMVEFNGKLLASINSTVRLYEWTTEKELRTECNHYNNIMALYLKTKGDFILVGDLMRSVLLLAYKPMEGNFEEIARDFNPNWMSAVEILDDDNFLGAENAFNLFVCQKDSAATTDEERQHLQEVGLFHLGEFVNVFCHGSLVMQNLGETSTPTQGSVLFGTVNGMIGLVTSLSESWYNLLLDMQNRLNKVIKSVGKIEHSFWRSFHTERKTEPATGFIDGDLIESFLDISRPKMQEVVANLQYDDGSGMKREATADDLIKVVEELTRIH

Row | SMILES | Degradation of substrate protein EZH2 (substrate protein remaining %) (EZH2) | inhibition at 0.01 µM [1] [%] | inhibition at 0.5 µM [1] [%] | inhibition at 0.01 µM [2] [%] | inhibition at 0.5 µM [2] [%]
1 | CCCc1cc(C)[nH]c(=O)c1CNC(=O)c1cc(-c2ccc(N3CCN(Cc4ccc5c(c4)CN(N4CCC(=O)NC4=O)C5=O)CC3)nc2)cc2c1cnn2C(C)C [GT-08418, 6-(6-(4-((2-(2,4-dioxotetrahydropyrimidin-1(2H)-yl)-1-oxoisoindolin-5-yl)methyl)piperazin-1-yl)pyridin-3-yl)-1-isopropyl-N-((6-methyl-2-oxo-4-propyl-1,2-dihydropyridin-3-yl)methyl)-1H-indazole-4-carboxamide] | A (0%≤substrate protein remaining %≤80%) |  |  |  | 
2 | CCCc1cc(C)[nH]c(=O)c1CNC(=O)c1cc(-c2ccc(N3CCN(Cc4ccc5c(c4)C(=O)N(N4CCC(=O)NC4=O)C5=O)CC3)nc2)cc2c1cnn2C(C)C [GT-08419, 6-(6-(4-((2-(2,4-dioxotetrahydropyrimidin-1(2H)-yl)-1,3-dioxoisoindolin-5-yl)methyl)piperazin-1-yl)pyridin-3-yl)-1-isopropyl-N-((6-methyl-2-oxo-4-propyl-1,2-dihydropyridin-3-yl)methyl)-1H-indazole-4-carboxamide] | A (0%≤substrate protein remaining %≤80%) |  |  |  | 
3 | CCCc1cc(C)[nH]c(=O)c1CNC(=O)c1cc(-c2ccc(N3CCC(N(C)Cc4ccc5c(c4)CN(N4CCC(=O)NC4=O)C5=O)CC3)nc2)cc2c1cnn2C(C)C [GT-08420, 6-(6-(4-(((2-(2,4-dioxotetrahydropyrimidin-1(2H)-yl)-1-oxoisoindolin-5-yl)methyl)(methyl)amino)piperidin-1-yl)pyridin-3-yl)-1-isopropyl-N-((6-methyl-2-oxo-4-propyl-1,2-dihydropyridin-3-yl)methyl)-1H-indazole-4-carboxamide] | A (0%≤substrate protein remaining %≤80%) |  |  |  | 
4 | CCCc1cc(C)[nH]c(=O)c1CNC(=O)c1cc(-c2ccc(N3CCC(N(C)Cc4ccc5c(c4)C(=O)N(N4CCC(=O)NC4=O)C5=O)CC3)nc2)cc2c1cnn2C(C)C [GT-08421, 6-(6-(4-(((2-(2,4-dioxotetrahydropyrimidin-1(2H)-yl)-1,3-dioxoisoindolin-5-yl)methyl)(methyl)amino)piperidin-1-yl)pyridin-3-yl)-1-isopropyl-N-((6-methyl-2-oxo-4-propyl-1,2-dihydropyridin-3-yl)methyl)-1H-indazole-4-carboxamide] | A (0%≤substrate protein remaining %≤80%) | 15 to 20 | 20 to 30 | 20 to 30 | 20 to 30
5 | CCCc1cc(C)[nH]c(=O)c1CNC(=O)c1cc(-c2ccc(N3CCN(C4CCN(Cc5ccc6c(c5)CN(N5CCC(=O)NC5=O)C6=O)CC4)CC3)nc2)cc2c1cnn2C(C)C [GT-08422, 6-(6-(4-(1-((2-(2,4-dioxotetrahydropyrimidin-1(2H)-yl)-1-oxoisoindolin-5-yl)methyl)piperidin-4-yl)piperazin-1-yl)pyridin-3-yl)-1-isopropyl-N-((6-methyl-2-oxo-4-propyl-1,2-dihydropyridin-3-yl)methyl)-1H-indazole-4-carboxamide] | A (0%≤substrate protein remaining %≤80%) |  |  | 5 to 10 | 20 to 30
6 | CCCc1cc(C)[nH]c(=O)c1CNC(=O)c1cc(-c2ccc(N3CCN(C4CCN(Cc5ccc6c(c5)C(=O)N(N5CCC(=O)NC5=O)C6=O)CC4)CC3)nc2)cc2c1cnn2C(C)C [GT-08423, 6-(6-(4-(1-((2-(2,4-dioxotetrahydropyrimidin-1(2H)-yl)-1,3-dioxoisoindolin-5-yl)methyl)piperidin-4-yl)piperazin-1-yl)pyridin-3-yl)-1-isopropyl-N-((6-methyl-2-oxo-4-propyl-1,2-dihydropyridin-3-yl)methyl)-1H-indazole-4-carboxamide] | A (0%≤substrate protein remaining %≤80%) | 20 to 30 | 30 to 40 | 20 to 30 | 40 to 50
7 | CCN(c1cc(-c2ccc(N3CCN(Cc4ccc5c(c4)CN(N4CCC(=O)NC4=O)C5=O)CC3)cc2)cc(C(=O)NCc2c(C)cc(C)[nH]c2=O)c1C)C1CCOCC1 [GT-08510, N-((4,6-dimethyl-2-oxo-1,2-dihydropyridin-3-yl)methyl)-4′-(4-((2-(2,4-dioxotetrahydropyrimidin-1(2H)-yl)-1-oxoisoindolin-5-yl)methyl)piperazin-1-yl)-5-(ethyl(tetrahydro-2H-pyran-4-yl)amino)-4-methyl-[1,1′-biphenyl]-3-carboxamide] | A (0%≤substrate protein remaining %≤80%) |  |  | 15 to 20 | 20 to 30
8 | CCN(c1cc(-c2ccc(N3CCN(C4CCN(CC5CCN(c6ccc7c(c6)C(=O)N(N6CCC(=O)NC6=O)C7=O)CC5)CC4)CC3)cc2)cc(C(=O)NCc2c(C)cc(C)[nH]c2=O)c1C)C1CCOCC1 [GT-08524, N-((4,6-dimethyl-2-oxo-1,2-dihydropyridin-3-yl)methyl)-4′-(4-(1-((1-(2-(2,4-dioxotetrahydropyrimidin-1(2H)-yl)-1,3-dioxoisoindolin-5-yl)piperidin-4-yl)methyl)piperidin-4-yl)piperazin-1-yl)-5-(ethyl(tetrahydro-2H-pyran-4-yl)amino)-4-methyl-[1,1′-biphenyl]-3-carboxamide] | A (0%≤substrate protein remaining %≤80%) |  |  | 15 to 20 | 20 to 30
9 | CCN(c1cc(-c2ccc(N3CCN(C4CCN(CC5CCN(c6cccc7c6C(=O)N(N6CCC(=O)NC6=O)C7=O)CC5)CC4)CC3)cc2)cc(C(=O)NCc2c(C)cc(C)[nH]c2=O)c1C)C1CCOCC1 [GT-08525, N-((4,6-dimethyl-2-oxo-1,2-dihydropyridin-3-yl)methyl)-4′-(4-(1-((1-(2-(2,4-dioxotetrahydropyrimidin-1(2H)-yl)-1,3-dioxoisoindolin-4-yl)piperidin-4-yl)methyl)piperidin-4-yl)piperazin-1-yl)-5-(ethyl(tetrahydro-2H-pyran-4-yl)amino)-4-methyl-[1,1′-biphenyl]-3-carboxamide] | A (0%≤substrate protein remaining %≤80%) |  |  |  | 
